In this assay the target is T1, human Cbx3 chromodomain (Homo sapiens, UniProt Q13185).
T1 construct: The chromodomain of Cbx3 (29–86) was subcloned into a pET-28a-MHL vector; His tag (TEV-cleavable, pET-28a-MHL) (N, cleaved yes); made in house
Nature of the assay: Isothermal titration calorimetry (ITC) of methylated peptides binding to Cbx3 chromodomain. More on the design: key to Kd peptide: N/B: No binding was detected. The following applies: Cbx3 chromodomain (residues 29–86), 60 µl of peptide solution (1–2 mM) injected into cell with 40–100 mM protein, 20 mM Tris–HCl, pH 7.5, 150 mM NaCl, one-site binding model. From the text: Chromodomain has been identified to be a methyl-lysine binding motif involved in transcription regulation, [28]. Many chromodomain-containing proteins, such as HP1 proteins and Polycomb group proteins, were reported to recognize methylated histone tails, [13], [17], [29]. Besides methylated histone H3K9, Cbx3, also known as HP1γ, can also bind to methylated Lys26 of histone H1 and methylated Lys185 of G9a, [22], [23]. To elucidate the binding affinity of Cbx3 chromodomain to these two methylated sites, isothermal titration calorimetry (ITC) assay was performed using histone H1K26 and G9aK185 peptides bearing different lysine methylation states as substrates. […] (Table 1).
Isothermal titration calorimetry measurements were performed as reported previously. Experiments were carried out by injecting 60 µl of peptide solution (1–2 mM) into a sample cell containing […] protein of Cbx3 chromodomain in 20 mM Tris–HCl, pH 7.5, 150 mM NaCl. The ITC measurements were fit to a one-site binding model using Origin Software (MicroCal Inc.)
On the technique in general: In ITC the heat of successive injections is recorded.

Square brackets hold non-standard residues; d marks the D form. Peptide text beside a SMILES is read from it. Lys(Me3) = C[N+](C)(C)CCCC[C@H](N)C(=O)O; Lys(Me2) = CN(C)CCCC[C@H](N)C(=O)O; Lys(Me) = CNCCCC[C@H](N)C(=O)O

T1 sequence (Q13185 29-86): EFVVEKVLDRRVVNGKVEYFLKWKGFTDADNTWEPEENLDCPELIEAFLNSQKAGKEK

For “TPVKKKARK^26SAG [H1.4(18–29) me1, histone H1.4 peptide, residues 18–29, mono-methylated at Lys26]”, the Kd peptide result is “N/B”. As a reminder, the Kd is a measure of binding affinity in units of concentration. In turn, `CSCC[C@H](NC(=O)[C@@H](NC(=O)[C@H](CCCC[N+](C)(C)C)NC(=O)[C@H](CCCNC(=N)N)NC(=O)[C@H](C)NC(=O)[C@H](CCCNC(=N)N)NC(=O)[C@H](Cc1c[nH]cn1)NC(=O)[C@@H](NC(=O)[C@@H](N)CCCCN)C(C)C)[C@@H](C)O)C(=O)N[C@@H](CO)C(=O)N[C@@H](CCCCN)C(=O)N1CCC[C@H]1C(=O)O` [G9a(179–190) me3] (H-KVHRAR[Lys(Me3)]TMSKP-OH) returned a Kd of 14 µM. Turning to `CNCCCC[C@H](NC(=O)[C@H](CCCNC(=N)N)NC(=O)[C@H](C)NC(=O)[C@H](CCCNC(=N)N)NC(=O)[C@H](Cc1c[nH]cn1)NC(=O)[C@@H](NC(=O)[C@@H](N)CCCCN)C(C)C)C(=O)N[C@H](C(=O)N[C@@H](CCSC)C(=O)N[C@@H](CO)C(=O)N[C@@H](CCCCN)C(=O)N1CCC[C@H]1C(=O)O)[C@@H](C)O` [G9a(179–190) me1] (H-KVHRAR[Lys(Me)]TMSKP-OH), the affinity, expressed as Kd, was 28 µM. “KVHRARK^185TMSKP [G9a(179–190) unmodified, histone methyltransferase G9a peptide, residues 179–190, without modification]”: the Kd peptide entry is given as “N/B”. For the same molecule, the Kd peptide result (listed as G9aK185) is listed as “did not exhibit detectable binding”. `CSCC[C@H](NC(=O)[C@@H](NC(=O)[C@H](CCCCN(C)C)NC(=O)[C@H](CCCNC(=N)N)NC(=O)[C@H](C)NC(=O)[C@H](CCCNC(=N)N)NC(=O)[C@H](Cc1c[nH]cn1)NC(=O)[C@@H](NC(=O)[C@@H](N)CCCCN)C(C)C)[C@@H](C)O)C(=O)N[C@@H](CO)C(=O)N[C@@H](CCCCN)C(=O)N1CCC[C@H]1C(=O)O` [G9a(179–190) me2] (H-KVHRAR[Lys(Me2)]TMSKP-OH) gave a Kd of 9 µM. As for “TPVKKKARK^26SAG [H1.4(18–29) unmodified, histone H1.4 peptide, residues 18–29, without modification]”, the Kd peptide result is recorded as “N/B ^*”. Also, the Kd peptide entry (listed as H1K26) is reported as “did not exhibit detectable binding”.

Values taken from article PMC3325965, “Structural Basis of the Chromodomain of Cbx3 Bound to Methylated Peptides from Histone H1 and G9a” (PLoS ONE, 2012).
